# What was measured:
# Type in all cases: in vivo
# [1] = tested on: Wheat; assay: Pre-emergence herbicidal activity (Example 31); design: key: 0-3 scale: 0 = 0-25% damage, 3 = 75-99% kill, 3+ = 100% kill; details: after three weeks
# Outline: (§1)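 Ratings run from 0 (0–25% damage) to 3 (75–99% kill), with 3+ meaning complete kill, assessed visually three weeks after spraying. Treatment was applied to soil right after sowing, before germination was triggered by overhead watering in the glasshouse.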
# [2] = tested on: Soy bean; assay: Post-emergence herbicidal test, young pot plants (Example 33); details: after 14 days
# Protocol: (§2) The compounds were formulated for test by mixing an appropriate amount with 5 ml of an emulsion prepared by diluting 160 ml of a solution containing 21.S g per litre of "Span" 80 and 78.2 g per litre of "Tween" 20 in methylcyclohexanone to 500 ml with water. "Span" 80 is a Trade Mark for a surface-active agent comprising sorbitan monolaurate. "Tween" 20 is a Trade Mark for a surface-active agent comprising a condensate of sorbitan monolaurate with 20 molar proportions of ethylene oxide. Each 5 ml emulsion containing a test compound was'then diluted to 40 ml with water and sprayed on to young pot plants (post-emergence test) of the species named in Table 5 below. Damage to test plants was assessed after 14 days on a scale of 0 to 5 where 0 is 0 to 20% damage and 5 is complete kill. In a test for pre-emergence herbicidal activity, seeds of the test plants were sown in a shallow slit formed in the surface of soil in fibre trays. The surface was then levelled and sprayed, and fresh soil then spread thinly over the sprayed surface. Assessment of herbicidal damage was carried out after 21 days using the same scale of 0 to 5 as the post-emergence test. In both cases the degree of herbicidal damage was assessed by comparison with untreated control plants. A dash (-) means that no experiment was carried out.
# [3] = tested on: Cotton; assay: as above; details: after 14 days
# Protocol: as §2
# [4] = tested on: Amaranthus retroflexus; assay: as above; details: after 14 days
# Protocol: as §2
# [5] = tested on: Ipomea purpurea; assay: as above; details: after 14 days
# Protocol: as §2
# [6] = tested on: Sugar beet; assay: as above; details: after 14 days
# Protocol: as §2
# [7] = tested on: Senecio vulgaris; assay: as above; details: after 14 days
# Protocol: as §2
# [8] = tested on: Chenopodium album; assay: as above; details: after 14 days
# Protocol: as §2
# [9] = tested on: Amaranthus retroflexus; assay: Pre-emergence herbicidal test, fibre trays (Example 33); details: after 21 days
# Outline: (§3)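 Compounds were emulsified with Span 80 and Tween 20 in methylcyclohexanone, diluted with water and sprayed. Post-emergence, young pot plants were sprayed and scored at 14 days. Pre-emergence, seeds sown in fibre-tray soil were sprayed, thinly covered with fresh soil and scored at 21 days (0 = 0–20% damage, 5 = complete kill).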
# [10] = tested on: Polygonum aviculare; assay: as above; details: after 21 days
# Outline: as §3
# [11] = tested on: Wheat; assay: Post-emergence herbicidal activity (Example 32); design: key: 0-3 scale: 0 = 0-25% damage, 3 = 75-99% kill, 3+ = 100% kill; details: 3 weeks after spraying
# Outline: (§4)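 Seeds sown in soil 2 cm deep; monocots and dicots in separate boxes. Seedlings grown under glass to 10–12.5 cm, then sprayed with aqueous dilutions of emulsifiable concentrate or suspension formulations. Boxes returned to glasshouse for 3 weeks and injury rated visually (0–3, 3+ total kill).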
# [12] = tested on: Wild Oats; assay: Pre-emergence herbicidal activity (Example 31); details: after three weeks
# Outline: as §1
# [13] = tested on: Winter wheat; assay: Post-emergence herbicidal test, young pot plants (Example 33); design: key: 0 = 0-20% damage, 5 = complete kill, vs untreated control; details: after 14 days
# Protocol: as §2
# [14] = tested on: Rape; assay: as above; details: 2.0 kg/ha, after 14 days
# Protocol: as §2
# [15] = tested on: Polygonum aviculare; assay: as above; details: 2.0 kg/ha, after 14 days
# Protocol: as §2
# [16] = tested on: Chenopodium album; assay: Pre-emergence herbicidal test, fibre trays (Example 33); details: 2.0 kg/ha, after 21 days
# Outline: as §3
# [17] = tested on: Wild Oats; assay: Post-emergence herbicidal activity (Example 32); details: 3 weeks after spraying
# Outline: as §4
Compound,"damage to plants, Wh ([1]; 1 kg/ha)","damage to plants, Wh ([1]; 5 kg/ha)","damage to plants, Wh ([11]; 1 kg/ha)","damage to plants, Wh ([11]; 5 kg/ha)","damage to plants, Ot ([12]; 1 kg/ha)","damage to plants, Ot ([12]; 5 kg/ha)","damage to test plants, Sy ([2]; 2.0 kg/ha)","damage to test plants, Rp [14]","damage to test plants, Ct ([3]; 2.0 kg/ha)","damage to test plants, Am ([4]; 2.0 kg/ha)","damage to test plants, Ip ([5]; 2.0 kg/ha)","damage to test plants, Sb ([6]; 2.0 kg/ha)","damage to test plants, Sn ([7]; 2.0 kg/ha)","damage to test plants, Ca ([8]; 2.0 kg/ha)","damage to test plants, Pi [15]","herbicidal damage, Am ([9]; 2.0 kg/ha)","herbicidal damage, Ca [16]","herbicidal damage, Pi ([10]; 2.0 kg/ha)","damage to test plants, Ww ([13]; 2.0 kg/ha)",further results
COC(=O)C(C)Oc1ccc(Nc2ccc(Cl)cc2[N+](=O)[O-])cc1 (stereo not shown) [Compound 28],0 (0 represents from 0 to 25% damage),2,3 (3 represents 75 to 99% kill),3+ (3+ represents 100% kill),2,3+ (3+ represents 100% kill),–,–,–,–,–,–,–,–,–,–,–,–,–,"damage to test plants, Sy ([2]; 1.0 kg/ha): 0 (0 is 0 to 20% damage); damage to test plants, Ct ([3]; 1.0 kg/ha): 0 (0 is 0 to 20% damage); damage to test plants, Am ([4]; 1.0 kg/ha): 0 (0 is 0 to 20% damage); damage to test plants, Ip ([5]; 1.0 kg/ha): 0 (0 is 0 to 20% damage); damage to test plants, Sb ([6]; 1.0 kg/ha): 1; damage to test plants, Sn ([7]; 1.0 kg/ha): 0 (0 is 0 to 20% damage); damage to test plants, Ca ([8]; 1.0 kg/ha): 0 (0 is 0 to 20% damage); herbicidal damage, Am ([9]; 1.0 kg/ha): 0 (0 is 0 to 20% damage); herbicidal damage, Pi ([10]; 1.0 kg/ha): 0 (0 is 0 to 20% damage); damage to test plants, Ww ([13]; 1.0 kg/ha): 4"
COC(=O)C(C)Oc1ccc(N(C)c2ccc(Cl)cc2[N+](=O)[O-])cc1 (stereo not shown) [Compound 27],0 (0 represents from 0 to 25% damage),1,2,3+ (3+ represents 100% kill),–,–,0 (0 is 0 to 20% damage),0 (0 is 0 to 20% damage),0 (0 is 0 to 20% damage),0 (0 is 0 to 20% damage),0 (0 is 0 to 20% damage),0 (0 is 0 to 20% damage),1,0 (0 is 0 to 20% damage),0 (0 is 0 to 20% damage),0 (0 is 0 to 20% damage),0 (0 is 0 to 20% damage),0 (0 is 0 to 20% damage),4,–
COC(=O)C(C)Oc1ccc(N(C)c2ccc(Br)cc2[N+](=O)[O-])cc1 (stereo not shown) [Compound 30],0 (0 represents from 0 to 25% damage),0 (0 represents from 0 to 25% damage),2,3+ (3+ represents 100% kill),1,3 (3 represents 75 to 99% kill),2,1,0 (0 is 0 to 20% damage),0 (0 is 0 to 20% damage),0 (0 is 0 to 20% damage),0 (0 is 0 to 20% damage),2,0 (0 is 0 to 20% damage),0 (0 is 0 to 20% damage),1,0 (0 is 0 to 20% damage),0 (0 is 0 to 20% damage),4,–
"COC(=O)C(C)Oc1ccc(N(C)c2ccc(Cl)cc2Cl)cc1 (stereo not shown) [Compound 1, Methyl 2-[4-(2,4-dichloro-N-methylanilino)phenoxy]-propionate]",0 (0 represents from 0 to 25% damage),0 (0 represents from 0 to 25% damage),0 (0 represents 0 to 25% damage),1,0 (0 represents from 0 to 25% damage),0 (0 represents from 0 to 25% damage),1,2,1,2,0 (0 is 0 to 20% damage),3,1,3,0 (0 is 0 to 20% damage),–,–,–,3,–
COC(=O)C(C)Oc1ccc(Nc2ccc(Br)cc2[N+](=O)[O-])cc1 (stereo not shown) [Compound 29],1,1,2,3+ (3+ represents 100% kill),1,3+ (3+ represents 100% kill),2,1,0 (0 is 0 to 20% damage),0 (0 is 0 to 20% damage),0 (0 is 0 to 20% damage),0 (0 is 0 to 20% damage),4,0 (0 is 0 to 20% damage),0 (0 is 0 to 20% damage),0 (0 is 0 to 20% damage),0 (0 is 0 to 20% damage),0 (0 is 0 to 20% damage),4,–
C#CCN(c1ccc(OC(C)C(=O)OC)cc1)c1ccc(C(F)(F)F)cc1[N+](=O)[O-] (stereo not shown) [Compound 81],–,–,2,3 (3 represents 75 to 99% kill),–,–,0 (0 is 0 to 20% damage),0 (0 is 0 to 20% damage),0 (0 is 0 to 20% damage),0 (0 is 0 to 20% damage),0 (0 is 0 to 20% damage),3,–,0 (0 is 0 to 20% damage),0 (0 is 0 to 20% damage),0 (0 is 0 to 20% damage),0 (0 is 0 to 20% damage),0 (0 is 0 to 20% damage),4,"damage to plants, Ot ([17]; 1 kg/ha): 3+ (3+ represents 100% kill); damage to plants, Ot ([17]; 5 kg/ha): 3+ (3+ represents 100% kill)"
